Measurements taken from article PMC4452637, “Identification of positron emission tomography (PET) tracer candidates by prediction of the target-bound fraction in the brain” (EJNMMI Research, 2014).
Where two headings read alike, the source gives them in different places.

What was measured:
[1] = Unbound fraction in brain homogenate (fu,brain); Vu,brain calculated from it with pH-partition model; conditions: calculated from reported fu,brain and tracer pKa with pH-partition model (tracers with fu,brain tabulated, footnote h of Table S1)
Experimental: The unbound volume of distribution in the brain (Vu,brain) describing the extent of non-specific partitioning was determined for 31 tracers using a previously described high-throughput brain slice method [11].

[2] = design: method as in ref 10 (a number printed in a supplementary file, which may have a reference list of its own: not looked up in the article's list); conditions: unbound fraction in homogenized brain tissue, reported; cited from earlier work
[3] = High-throughput brain slice method (Vu,brain); conditions: unbound volume of distribution in brain, measured in rat brain slices, LC-MS/MS (no fu,brain tabulated in Table S1)
NET = conditions: literature value; 76 (Additional file 1); cited from earlier work
DAT [4] = conditions: PET, striatum, 58 (Additional file 1), cited from earlier work
H3 = molecular target: H3; design: method as in ref 38 (Additional file 1); conditions: literature value; ref 38 (Additional file 1); cited from earlier work
TSPO [5] = molecular target: TSPO; design: method as in ref 28, 29, 55 (Additional file 1); conditions: literature value; 55 (Additional file 1); cited from earlier work
5HT1a = conditions: PET, hippocampus, 65 (Additional file 1), cited from earlier work
SERT = molecular target: SERT; design: method as in ref 5, 19, 43, 45, 67 (Additional file 1); conditions: literature value; 67 (Additional file 1); cited from earlier work
D2 [6] = molecular target: D2; design: method as in ref 22, 31, 62, 82 (Additional file 1); conditions: literature value; 82 (Additional file 1); cited from earlier work
AchE = conditions: literature value; ref 18 (Additional file 1); cited from earlier work
DAT [7] = molecular target: DAT; design: method as in ref 26, 31, 57 (Additional file 1); conditions: literature value; 57 (Additional file 1); cited from earlier work
TSPO [8] = conditions: PET, basal ganglia, 81 (Additional file 1), cited from earlier work
CB1r = molecular target: CB1r; design: method as in ref 48 (Additional file 1); conditions: literature value; ref 48 (Additional file 1); cited from earlier work
Amyloid [9] = molecular target: Amyloid; design: method as in ref 12, 13, 14, 15 (Additional file 1); conditions: literature value; 15 (Additional file 1); cited from earlier work
GABA = molecular target: GABA; design: method as in ref 33, 74 (Additional file 1); conditions: literature value; 74 (Additional file 1); cited from earlier work
5HT2a = conditions: PET, temporal cortex, 47 (Additional file 1), cited from earlier work
D2 [10] = conditions: PET, cited from earlier work
KOR = molecular target: KOR; design: method as in ref 35 (Additional file 1); conditions: literature value; ref 35 (Additional file 1); cited from earlier work
NK1 = molecular target: NK1; design: method as in ref 36 (Additional file 1); conditions: literature value; ref 36 (Additional file 1); cited from earlier work
nAChr a4b2 = conditions: PET, thalamus, ref 3 (Additional file 1), cited from earlier work
Amyloid [11] = conditions: PET, cortex, 61 (Additional file 1), cited from earlier work
[12] = caudate/striatum, ref 23 (Additional file 1)

[11CH3]Oc1ccccc1O[C@@H](c1ccccc1)[C@H]1CNCCO1 [[^11C]MeNER]
V u,brain [1]: 31 mL/g brain
fu,brain [2]: 0.07

[11CH3]Nc1ccc(-c2nc3ccc(O)cc3s2)cn1 [[^11C]AZD2184]
V u,brain [3]: 33 mL/g brain

COc1ccccc1O[C@@H](c1ccccc1)[C@H]1CNCCO1 [[^11C]MeNER]
Kd (NET): 2.5 nM

COC(=O)[C@H]1[C@@H](c2ccc(I)cc2)C[C@@H]2CC[C@H]1N2CCC[18F] [[^18 F]FP-CIT]
BP ND (DAT [4]): 1.0
BP ND (DAT [4]; listed as [^18F]FP-CIT): 1[32]
V u,brain [3]: 36 mL/g brain

COc1ccccc1N1CCN(CCN(c2ccccn2)[11C](=O)C2CCCCC2)CC1 [[^11C]WAY100635]
V u,brain [3]: 14 mL/g brain

Cc1ccc([C@H]2C[C@@H]3CC[C@H]([C@H]2C(=O)OCC[18F])N3C/C=C/I)cc1 [[^18 F]FE-PE2I]
BP ND (DAT [4]): 4.1
BP ND (DAT [4]; listed as [^11C]FE-PE2I): 4.1[27]
V u,brain [3]: 62 mL/g brain

CNC(=O)c1ccc(Oc2ccc3c(c2)CCN(C2CCC2)CC3)nc1 [[^11C]GSK189254A]
Kd (H3): 0.08 nM

CC(=O)N(Cc1ccccc1OCCF)c1cnccc1Oc1ccccc1 [[^18 F]FEPPA]
Kd (TSPO [5]): 0.07 nM

COc1ccccc1N1CCN(CCN(C(=O)c2ccc([18F])cc2)c2ccccn2)CC1 [[^18 F]MPPF]
V u,brain [1]: 14 mL/g brain
BP ND (5HT1a): 1.6
BP ND (5HT1a; listed as [^18F]MPPF): 1.6[51]
fu,brain [2]: 0.1

CCN1CCC[C@H]1CNC(=O)c1cc(Br)cc(OC)c1O[11CH3] [[^11C]FLB457]
V u,brain [1]: 26 mL/g brain
fu,brain [2]: 0.11

CN([11CH3])Cc1ccccc1Sc1ccc(C#N)cc1N [[^11C]DASB]
V u,brain [1]: 31 mL/g brain
fu,brain [2]: 0.09

Cc1ccc(Sc2ccccc2CN(C)C)c(N)c1 [[^11C]MADAM]
Kd (SERT): 0.06 nM

CCN1CCC[C@H]1CNC(=O)c1cc(Br)cc(OC)c1OC [[^11C]FLB457]
Kd (D2 [6]): 0.02 nM

[11CH3]OC(=O)N1CCN(C(=O)Cc2ccc(Cl)c(Cl)c2)[C@H](CN2CCCC2)C1 [[^11C]GR103545]
V u,brain [1]: 41 mL/g brain
fu,brain [2]: 0.07

CN1C(=O)Cc2cc3c(CCC4CCN(Cc5ccccc5)CC4)noc3cc21 [[^11C]CP-126998]
Kd (AchE): 0.48 nM

COC(=O)[C@H]1[C@@H](c2ccc(I)cc2)C[C@@H]2CC[C@H]1N2CCCF [[^18 F]FP-CIT]
Kd (DAT [7]): 33 nM

[11CH3]Nc1ccc(-c2nc3ccc(O)cc3s2)cc1 [[^11C]PIB]
fu,brain [2]: 0.004

COC(=O)C1C(c2ccc(C)cc2)CC2CCC1N2CC=CI (stereo not shown) [[^11C]PE2I]
Kd (DAT [7]): 4.9 nM

CC(=O)N(Cc1ccccc1OCC[18F])c1cnccc1Oc1ccccc1 [[^18 F]FEPPA]
BP ND (TSPO [8]): 4.4
BP ND (TSPO [8]; listed as [^18F]FEPPA): 4.4[30]
V u,brain [1]: 15 mL/g brain
fu,brain [2]: 0.07

COc1cccc([C@H]2C[C@@H](N[C@H](C)c3ccccc3)C(=O)N2c2ccc(C(F)(F)F)cc2)c1 [[^11C]MePPEP]
Kd (CB1r): 0.1 nM

Cc1ccc([C@H]2C[C@@H]3CC[C@H]([C@H]2C(=O)OCCF)N3C/C=C/I)cc1 [[^18 F]FE-PE2I]
Kd (DAT [7]): 12 nM

CSc1ccc([C@H]2CN3CCC[C@H]3c3ccccc32)cc1 [[^11C]McN5652]
Kd (SERT): 0.2 nM

C=CCN1CCC[C@H]1CNC(=O)c1cc(CCCF)cc(OC)c1OC [[^18 F]Fallypride]
Kd (D2 [6]): 0.03 nM

[11CH3]Sc1ccc([C@H]2CN3CCC[C@H]3c3ccccc32)cc1 [[^11C]McN5652]
V u,brain [3]: 238 mL/g brain

CNc1ccc(-c2cc3cc(O)ccc3o2)c(F)n1 [[^18 F]AZD4694]
Kd (Amyloid [9]): 2.3 nM

Cc1ccc(N2CCN([11CH3])CC2)c2oc(C(=O)Nc3ccc(N4CCOCC4)cc3)cc(=O)c12 [[^11C]AZ10419369]
V u,brain [3]: 30 mL/g brain

Cc1ccc(Sc2ccccc2CN(C)[11CH3])c(N)c1 [[^11C]MADAM]
V u,brain [3]: 90 mL/g brain

CCOC(=O)c1ncn2c1CN(C)C(=O)c1cc(F)ccc1-2 [[^11C]Flumazenil]
Kd (GABA): 0.7 nM

Cc1ccc(C2CC3CCC(C2C(=O)O[11CH3])N3CC=CI)cc1 (stereo not shown) [[^11C]PE2I]
V u,brain [3]: 39 mL/g brain

CNc1ccc(-c2nc3ccc(O)cc3s2)cn1 [[^11C]AZD2184]
Kd (Amyloid [9]): 4.9 nM

O=C(c1ccc([18F])cc1)C1CCN(CCn2c(=S)[nH]c3ccccc3c2=O)CC1 [[^18 F]Altanserin]
V u,brain [1]: 122 mL/g brain
BP ND (5HT2a): 1.06
BP ND (5HT2a; listed as [^18F]Altanserin): 1.06[8]
fu,brain [2]: 0.02

[11CH3]N1CCc2cc(Cl)c(O)cc2[C@@H](c2cccc3ccoc23)C1 [[^11C]NNC112]
V u,brain [3]: 70 mL/g brain

C=CCN1CCC[C@H]1CNC(=O)c1cc(CCC[18F])cc(OC)c1OC [[^18 F]Fallypride]
BP ND (D2 [10]; [12]): 22.2
BP ND (D2 [10]; caudate/striatum, ref 23 (Additional file 1), listed as [^18F]Fallypride): 22.2[23]
BP ND (D2 [10]; thalamus, 32 (Additional file 1)): 2.11
BP ND (D2 [10]; thalamus, 32 (Additional file 1), listed as [^18F]Fallypride): 2.11[23]
V u,brain [1]: 18 mL/g brain
fu,brain [2]: 0.15

COC(=O)N1CCN(C(=O)Cc2ccc(Cl)c(Cl)c2)[C@H](CN2CCCC2)C1 [[^11C]GR103545]
Kd (KOR): 0.048 nM

Cc1nccc2c1[nH]c1cc(O[11CH3])ccc12 [[^11C]Harmine]
V u,brain [1]: 25 mL/g brain
fu,brain [2]: 0.04

[11CH3]N1C(=O)Cc2cc3c(CCC4CCN(Cc5ccccc5)CC4)noc3cc21 [[^11C]CP-126998]
V u,brain [1]: 41 mL/g brain
fu,brain [2]: 0.07

COc1ccc(-n2nnnc2C(F)(F)F)cc1CN[C@H]1CCCN[C@H]1c1ccccc1 [[^11C]GR205171]
V u,brain [1]: 57 mL/g brain
Kd (NK1): 0.016 nM
fu,brain [2]: 0.05

CCN1CCC[C@H]1CNC(=O)c1c(O)c(Cl)cc(Cl)c1O[11CH3] (racemic) [[^11C]Raclopride]
BP ND (D2 [10]; [12]): 2.6

[18F]c1ncccc1OC[C@@H]1CCN1 [[^18 F]2-FA-85380]
BP ND (nAChr a4b2): 1.8
BP ND (nAChr a4b2; listed as [^18F]2-FA-85380): 1.8[3]

CNc1ccc(-c2cc3cc(O)ccc3o2)c([18F])n1 [[^18 F]AZD4694]
BP ND (Amyloid [11]): 1.2
BP ND (Amyloid [11]; listed as [^11C]AZD4694): 1.2[16]
V u,brain [3]: 205 mL/g brain

[11CH3]NC(=O)c1ccc(Oc2ccc3c(c2)CCN(C2CCC2)CC3)nc1 [[^11C]GSK189254A]
fu,brain [2]: 0.24

[11CH3]N1CCc2cc(Cl)c(O)cc2[C@@H](c2ccccc2)C1 [[^11C]SCH23390]
V u,brain [1]: 32 mL/g brain
fu,brain [2]: 0.06

COc1c(O[11CH3])cccc1[C@H](O)C1CCN(CCc2ccc(F)cc2)CC1 [[^11C]MDL100907]
V u,brain [1]: 17 mL/g brain

O=C(CCCN1CCC2(CC1)C(=O)NCN2c1ccccc1)c1ccc([18F])cc1 [[^18 F]Spiperone]
V u,brain [3]: 147 mL/g brain

CCN1CCC[C@H]1CNC(=O)c1c(OC)ccc(Br)c1OC [[^11C]Remoxipride]
Kd (D2 [6]): 270 nM

CNCCC(Oc1ccccc1OC)c1ccccc1 (racemic) [[^11C]Nisoxetine]
Kd (NET): 0.73 nM

CCC(C)N(C)C(=O)c1cc2ccccc2c(-c2ccccc2Cl)n1 (stereo not shown) [[^11C]PK11195]
V u,brain [1]: 59 mL/g brain
fu,brain [2]: 0.01

C[C@@H](N[C@@H]1C[C@H](c2cccc(O[11CH3])c2)N(c2ccc(C(F)(F)F)cc2)C1=O)c1ccccc1 [[^11C]MePPEP]
V u,brain [3]: 296 mL/g brain
